Patent publication US20260049075A1, “CYTOTOXIC IMIDAZO[1,2-A]PYRIDINE COMPOUNDS AND THEIR USE IN THERAPY” (MyricX Pharma Limited, priority 2022, published 2026)

Columns and labels:
[1] = Body weight in BT474 xenograft study; format: in vivo, mouse; conditions: 2 mg/kg IV, 2 days dosing then 5 day holiday; terminated early
Procedure: During the study, body weights were measured three times weekly for all animals. Animals were given Diet Gel for the entire duration on the study.

[2] = system: BT474 breast cancer cells; experiment: Orthotopic breast cancer xenograft model (BT474), tumour volume; format: in vivo, mouse; conditions: 2.0 mg/kg IV, 2 days dosing then 5 day holiday; stopped at day 13
Procedure: NOD/SCID mice were implanted with estrogen pellets (17β-estradiol, 60 day release, 0.36 mg) subcutaneously in the right flank one day before the tumour inoculation. On day −8 each mouse was then injected in the right mammary fat pad with 1×10^7 viable BT474 breast cancer cells resuspended in 0.2 mL of Phosphate Buffered Saline mixed with matrigel (1:1). Mice were assigned to treatment groups when tumour volumes averaged 149.78 mm^3 on study day 0. […] The study was terminated on Study Day 35. […] Each group was comprised of 10 mice. Tumour volumes in mice were measured three times per week and tumour volume was calculated using the formula 0.5 (L×W^2). […] Statistical analyses were carried out on tumour readings for Groups 1, 2, 3, 4 and 5 up to Study Day 23 (after this point >50% of the animals within one of the study groups were lost; Group 2) using two-way ANOVA, or a Mixed-Effects model was fitted when values were missing from groups (PRISM GraphPad Software Inc.). Statistical analysis of Group 6 was conducted until day 12 (at this point the study was terminated due to the significant loss of observed body weight). Using a ROUT outlier analysis in GraphPad Prism, one mouse in Group 5 was identified as an outlier across all timepoints (at the 5% confidence level) and has therefore been excluded from analysis. […]

[3] = biological target: T1, human NMT1 (HsNMT1) (Homo sapiens, UniProt P30419); experiment: HsNMT1 sensitive fluorescence-based assay (CoA detection with CPM); format: biochemical
T1 sequence (P30419 1-496): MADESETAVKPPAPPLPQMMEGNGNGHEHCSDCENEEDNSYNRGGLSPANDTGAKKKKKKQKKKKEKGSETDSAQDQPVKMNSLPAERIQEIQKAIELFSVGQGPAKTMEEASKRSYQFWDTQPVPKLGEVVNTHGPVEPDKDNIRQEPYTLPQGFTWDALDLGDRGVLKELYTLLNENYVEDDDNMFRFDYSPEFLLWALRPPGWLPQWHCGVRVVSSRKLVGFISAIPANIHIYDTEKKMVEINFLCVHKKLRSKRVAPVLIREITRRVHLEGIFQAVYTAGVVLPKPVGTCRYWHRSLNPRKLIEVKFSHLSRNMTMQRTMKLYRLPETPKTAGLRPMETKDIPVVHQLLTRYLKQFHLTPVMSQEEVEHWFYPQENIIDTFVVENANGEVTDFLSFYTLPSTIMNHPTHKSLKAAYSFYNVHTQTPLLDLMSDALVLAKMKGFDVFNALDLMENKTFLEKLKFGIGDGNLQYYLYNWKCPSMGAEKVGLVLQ

[4] = system: DOHH-2 tumor cells; experiment: Subcutaneous xenograft DOHH-2 Lymphoma Model; format: in vivo, mouse; conditions: CB17/SCID mice
Procedure: The in vivo efficacy of certain Example compounds was assessed in a subcutaneous xenograft DOHH-2 Lymphoma Model using 10 female 6-8 week old CB17/SCID Mice. Each mouse was inoculated subcutaneously at the right front region with DOHH-2 tumor cells (5×10^6) in 0.1 ml of PBS mixed with matrigel (1:1 PBS:matrigel) for tumor development. The test compound administration started once the mean tumor size reached approximately 100-150 mm^3. Compounds were administered either IP (vehicle 10 mM sodium phosphate+0.2% Tween-80 (pH7.4) or orally (vehicle 15 Na2HPO4 buffer (10 mM) (pH 4.5)+0.2% tween 80). Tumor volumes were measured in two dimensions using a caliper, and the volume expressed in mm^3 using the formula: V=(L×W×W)/2, where V is tumor volume, L is tumor length (the longest tumor dimension) and W is tumor width (the longest tumor dimension perpendicular to L). Mice were dosed with Example 21 orally (12.5 or 25 mg/kg) once a day for 9 consecutive days (FIG. 3). Example 5 was dosed intraperitoneally (7 or 20 mg/kg) in a cycle consisting of administration QD for three days followed by a three day no-dosing period followed by QD dosing for a further three days (FIG. 4). Example 12 was dosed intraperitoneally (0.7 or 2 mg/kg) in a cycle consisting of administration QD for three days followed by a three day no-dosing period followed by QD dosing for a further three days (FIG. 5). In a separate study Example 12 was dosed at […] in a cycle consisting of administration QD for two days followed by either four or six day no-dosing period, and this cycle was repeated three times (FIG. 6).
The protocol and any amendment(s) or procedures involving the care and use of animals in this study were reviewed and approved by the Institutional Animal Care and Use Committee (IACUC) of CrownBio prior to execution. During the study, the care and use of animals was conducted in accordance with the regulations of the Association for Assessment and Accreditation of Laboratory Animal Care (AAALAC).

[5] = system: VcaP tumour cells; experiment: VcaP prostate cancer xenograft model, tumour volume; format: in vivo, mouse; conditions: for ΔTGI (Study Day 17): CB17/SCID mice
From the text: All mice received two doses of test agent, on Study Day 1 and Study Day 8. The study was terminated on Study Day 30.

[6] = system: LNCaP tumour cells; experiment: LNCaP prostate cancer xenograft model, tumour volume; format: in vivo, mouse; conditions: for Day 28 tumour volume (mm^3, mean ± SEM) / Tumour growth inhibition (TGI, %): IV, Q7D (x3); for Day 28 tumour volume (mm^3, mean ± SEM): NOD SCID mice; for Tumour growth inhibition (TGI, %): day 28
From the text: A total of 84 male NOD SCID mice aged 5-8 weeks and weighing 25-30 g were used for the study.

[7] = system: JIMT-1 tumour cells; experiment: JIMT-1 breast cancer xenograft model, tumour volume; format: in vivo, mouse
Procedure: 80 mice were assigned to 8 treatment groups when tumour volumes averaged ˜160.66 mm^3 on Study Day 0. Dosing commenced the following day and all animals were dosed intravenously with ADC Example 3, sacituzumab govitecan or unconjugated sacituzumab. The study was terminated on the Study Day 60.

[8] = intraperitoneal dosing, Example 5 7 or 20 mg/kg, Example 12 0.7 or 2 mg/kg, QD cycles

CNCc1cnc2ccc(-c3ccc(F)c(F)c3OCCc3c(C(O)C(C)(C)C)nn(C)c3C)cn12 (single isomer, unassigned) [Example 12, 1-(4-(2-(2,3-difluoro-6-(3-((methylamino)methyl)imidazo[1,2-a]pyridin-6-yl)phenoxy)ethyl)-1,5-dimethyl-1H-pyrazol-3-yl)-2,2-dimethylpropan-1-ol]
body weights [1]: decreased significantly
tumour size [2]: reduced tumour size
IC50 [3]: 2.1 nM
tumour volume compared to vehicle [4, 8]: significant reduction in tumour volume or reduced growth in tumour volume

CNCc1cnc2ccc(-c3ccc(F)cc3OCCc3c(C(C)O)nn(C)c3C)cn12 (stereo not shown) [Example 1, 1-{4-[2-(5-fluoro-2-{3-[(methylamino)methyl]imidazo[1,2-a]pyridin-6-yl}phenoxy)ethyl]-1,5-dimethyl-1H-pyrazol-3-yl}ethan-1-ol]
IC50 [3]: 2.2 nM

CNCc1cnc2ccc(-c3ccc(F)c(F)c3OCCc3c(C(C)O)nn(C)c3C)cn12 (stereo not shown) [Example 5, 1-{4-[2-(2,3-difluoro-6-{3-[(methylamino)methyl]imidazo[1,2-a]pyridin-6-yl}phenoxy)ethyl]-1,5-dimethyl-1H-pyrazol-3-yl}ethan-1-ol]
IC50 [3]: 2.2 nM
tumour volume compared to vehicle [4, 8]: significant reduction in tumour volume or reduced growth in tumour volume

Cc1c(CCOc2cc(F)ccc2-c2ccc3ncc(CCN)n3c2)c(C(C)O)nn1C (stereo not shown) [Example 7, 1-(4-(2-(2-(3-(2-aminoethyl)imidazo[1,2-a]pyridin-6-yl)-5-fluorophenoxy)ethyl)-1,5-dimethyl-1H-pyrazol-3-yl)ethan-1-ol]
IC50 [3]: 9 nM

Cc1c(CCOc2c(-c3ccc4ncc(CN)n4c3)ccc(F)c2F)c(C(O)C(C)(C)C)nn1C (stereo not shown) [Example 17, 1-(4-(2-(6-(3-(aminomethyl)imidazo[1,2-a]pyridin-6-yl)-2,3-difluorophenoxy)ethyl)-1,5-dimethyl-1H-pyrazol-3-yl)-2,2-dimethylpropan-1-ol]
IC50 [3]: 2 nM

Cc1c(CCOc2c(-c3ccc4ncc(CN)n4c3)ccc(F)c2F)c(C(C)(C)O)nn1C [Example 20, 2-[4-(2-{6-[3-(aminomethyl)imidazo[1,2-a]pyridin-6-yl]-2,3-difluorophenoxy}ethyl)-1,5-dimethyl-1H-pyrazol-3-yl]propan-2-ol]
IC50 [3]: 2 nM

CNCc1cnc2ccc(-c3ccc(F)c(F)c3OCCc3c(C(C)(C)O)nn(C)c3C)cn12 [Example 21, 2-(4-(2-(2,3-difluoro-6-(3-((methylamino)methyl)imidazo[1,2-a]pyridin-6-yl)phenoxy)ethyl)-1,5-dimethyl-1H-pyrazol-3-yl)propan-2-ol]
tumour volume compared to vehicle ([4]; oral dosing 12.5 or 25 mg/kg once a day for 9 days): significant reduction in tumour volume or reduced growth in tumour volume

CCNCc1cnc2ccc(-c3ccc(F)cc3OCCc3c(C(C)(C)O)nn(C)c3C)cn12 [Example 22, 2-{4-[2-(2-{3-[(ethylamino)methyl]imidazo[1,2-a]pyridin-6-yl}-5-fluorophenoxy)ethyl]-1,5-dimethyl-1H-pyrazol-3-yl}propan-2-ol]
IC50 [3]: 3 nM

CNCc1cnc2ccc(-c3ccc(F)c(F)c3OCCc3c(C(O)C(C)C)nn(C)c3C)cn12 (stereo not shown) [Example 25, 1-{4-[2-(2,3-difluoro-6-{3-[(methylamino)methyl]imidazo[1,2-a]pyridin-6-yl}phenoxy)ethyl]-1,5-dimethyl-1H-pyrazol-3-yl}-2-methylpropan-1-ol]
IC50 [3]: 2 nM

ifinatamab: antibody binding CD276 (B7-H3); heavy chain SEQ ID NO: 6, light chain SEQ ID NO: 5
tumour volume compared to vehicle alone ([5]; 2.5 mg/kg): no significant difference
ΔTGI (Study Day 17) ([5]; 2.5 mg/kg IV QW x 2 weeks): 8.47%
tumour volume compared to vehicle alone ([5]; 5 mg/kg): no significant difference
ΔTGI (Study Day 17) ([5]; 5 mg/kg IV QW x 2 weeks): 12.44%
effect on LNCaP tumour volume compared to vehicle ([6]; 5 mg/kg): no significant effect
Day 28 tumour volume (mm^3, mean ± SEM) ([6]; 5 mg/kg): 551.4 ± 73.1 mm^3
Tumour growth inhibition (TGI, %) ([6]; 5 mg/kg): 30.6%
effect on LNCaP tumour volume compared to vehicle ([6]; 10 mg/kg): no significant effect
Day 28 tumour volume (mm^3, mean ± SEM) ([6]; 10 mg/kg): 666.56 ± 103.2 mm^3
Tumour growth inhibition (TGI, %) ([6]; 10 mg/kg): 13.0%

sacituzumab
tumour volume compared to vehicle alone ([7]; 2.5 mg/kg): no significant difference
tumour volume compared to vehicle alone ([7]; 5 mg/kg): significant decrease in tumour volume

sacituzumab govitecan [reference compound]
tumour volume compared to vehicle alone ([7]; 2.5 mg/kg): significant decrease in tumour volume
tumour volume compared to vehicle alone ([7]; 5 mg/kg): significant decrease in tumour volume

B1: ifinatamab-DXd (conjugate, chains of the INN, looked up)
VH: QVQLVQSGAEVKKPGSSVKVSCKASGYTFTNYVMHWVRQAPGQGLEWMGYINPYNDDVKYNEKFKGRVTITADESTSTAYMELSSLRSEDTAVYYCARWGYYGSPLYYFDYWGQGTLVTVSS
VL: EIVLTQSPATLSLSPGERATLSCRASSRLIYMHWYQQKPGQAPRPLIYATSNLASGIPARFSGSGSGTDFTLTISSLEPEDFAVYYCQQWNSNPPTFGQGTKVEIK
modifications: deruxtecan (DXd) payload
tumour volume compared to vehicle alone ([5]; 2.5 mg/kg): no significant difference
ΔTGI (Study Day 17) ([5]; 2.5 mg/kg IV QW x 2 weeks): 5.24%
tumour volume compared to vehicle alone ([5]; 5 mg/kg): significantly higher tumour volume
ΔTGI (Study Day 17) ([5]; 5 mg/kg IV QW x 2 weeks): 2.86%
effect on LNCaP tumour volume compared to vehicle ([6]; 5 mg/kg): slowed the growth of LNCaP tumours to a lesser extent
Day 28 tumour volume (mm^3, mean ± SEM) ([6]; 5 mg/kg): 364.6 ± 51.7 mm^3
Tumour growth inhibition (TGI, %) ([6]; 5 mg/kg): 58.8%
effect on LNCaP tumour volume compared to vehicle ([6]; 10 mg/kg): significantly reduced the mean volume
Day 28 tumour volume (mm^3, mean ± SEM) ([6]; 10 mg/kg): 259.5 ± 50.3 mm^3
Tumour growth inhibition (TGI, %) ([6]; 10 mg/kg): 75.0%
